Measured values taken from patent publication US20250205286A1, “COMPOSITIONS, REAGENTS, AND METHODS FOR TREATING PITT-HOPKINS SYNDROME” (Vitro Biopharma, Inc., priority 2022, published 2025).

Tested on: Hsp70 secretion from UC-MSCs
Test: Hsp70 secretion from cultured UC-MSCs exposed to LiCl (immunoassay)
Format: cell-based, human
Conditions: 200 micromolar LiCl; medium collected 96 hours later; p<0.05
Description: FIG. 7 is a graph showing the secretion of heat shock protein 70 (Hsp70) from cultured UC-MSCs (e.g., ALLORX STEM CELLS®) and the effects of increasing concentrations of lithium chloride (LiCl) on Hsp70 secretion.
UC-MSCs were plated at 5,000 cells/cm^2 in T-25 flasks and cultured until confluence was 80-90%. The cells were then exposed to the LiCl concentrations shown on the x axis and the medium was collected 96 hours later and assayed by immunoassay for Hsp70. […] Since Hsp70 mediates cellular protection as a chaperone molecule and through antiapoptotic mechanisms (refs), its enhanced secretion from MSCs (possible through inclusion in exosomes Ref) may reflect mechanisms of stem cell activation by GSK-3p inhibition in conjunction with HDAC inhibition (e.g., see U.S. application Ser. No. 17/239,513 which is incorporated by reference). This effect is a possible mode of action of the therapy proposed by the present disclosure.

## [Cl-].[Li+] [LiCl, lithium chloride]
  secretion of Hsp70: significant increased secretion
